Assay results: patent publication US8779151B2, “Orally bioavailable caffeic acid related anticancer drugs” (The Board of Regents of the University of Texas System, priority 2006, dated 2014)

Tests used:
[1] = tested on: constitutively activated STAT3 in Colo357-FG cells; test: Western blot of phosphorylated STAT3 (Tyr705) and total STAT3 in Colo357-FG cells (FIG. 1); format: cell-based, human
Excerpt: Cultured pancreatic cancer cells treated with different times and concentrations of WP compounds or DMSO (solvent) were lysed in lysis buffer and equal amounts of protein extracts were fractionated by sodium dodecyl sulfate polyacrylamide gel electrophoresis and transferred to Hybond-P membranes. Membranes were immuno-blotted using phospho-specific STAT3, total STAT3, Bcl-xL, survivin, PARP, caspase-8 and GADPH antibodies. The primary antibodies were visualized with goat anti-rabbit or goat anti-mouse peroxidase-conjugated antibodies using an enhanced […] (ECF) system and a Molecular Dynamics Storm PhosphorImager.

U87-MG cells = details: cited from earlier work
U373-MG cells = details: cited from earlier work
[2] = tested on: subcutaneous malignant glioma xenografts; details: cited from earlier work
[3] = tested on: human malignant glioma U87-MG and U373-MG cells; details: cited from earlier work
STAT3 = test: Inhibition of STAT3 phosphorylation, WP1193 compared with WP1066 (FIG. 34); format: cell-based

| Compound | inhibition of constitutively activated STAT3 (phospho-Tyr705 versus total STAT3) [1] | IC50 (U87-MG cells) [µM] | increase in potency over that of AG490 (U87-MG cells; versus AG490) [fold] | IC50 (U373-MG cells) [µM] | increase in potency over that of AG490 (U373-MG cells; versus AG490) | phosphorylated STAT3 levels in excised tumors (immunohistochemical analysis) ([2]; 3 weeks after the final WP1066 injection, versus control group) | growth of subcutaneous malignant glioma xenografts ([2]; mice, systemic intraperitoneal administration, 30-day follow-up period) | Bax, c-myc, Bcl-XL, Mcl-1 and apoptosis [3] | inhibition of STAT3 phosphorylation relative to WP1066 (STAT3) |
| --- | --- | --- | --- | --- | --- | --- | --- | --- | --- |
| C[C@H](NC(=O)/C(C#N)=C/c1cccc(Br)n1)c1ccccc1 [WP1066] | Inhibition of constitutively activated STAT3 | 5.6 | 18 | 3.7 | eightfold | remained inhibited | significantly (P<0.001) inhibited the growth | activated Bax, suppressed the expression of c-myc, Bcl-XL and Mcl-1, and induced apoptosis | – |
| N#C/C(=C\c1cccc(Br)n1)C(=O)N[C@H](c1ccccc1)C1CC1 [WP1193, (E)-3-(6-bromopyridin-2-yl)-2-cyano-N-((S)-cyclopropyl(phenyl)methyl)acrylamide] | Inhibition of constitutively activated STAT3 | – | – | – | – | – | – | – | more potently than WP1066 |
